# Measured values as given in patent US20050130252A1, “Stabilized susceptibility tests of aerobic pathogens” (Wyeth Holdings Corporation, priority 2003, published 2005).
# Like-named read-outs stand apart in the source and are kept apart here.
# How the values were obtained:
# S. aureus ATCC 29213 = assay: Broth microdilution MIC; type: cell-based, Staphylococcus aureus; conditions: for MIC: Staphylococcus aureus
# Description: The process for preparing susceptibility test medium are the following steps: • a. Preparing Mueller Hinton Broth II medium by adding 22 grams powdered media to 1.0 liter distilled water; • b. Autoclaving (121° C., 15 psi, 15 minutes) and cooling the medium; • c. Adding Oxyrase® up to about 10% final volume and keeping at 35-37° C. in an incubator for 30 minutes; • d. Adding about 50 μL to each well of a 96 well microtiter plate; • e. Weighing drug and adding broth to drug to bring up to about (standard 128 μg/ml); • f. Adding 50 μL of the drug to the first column of the titer plate; • g. Diluting by two-fold serial diluting across or down the plate. • h. Preparing a Prompt™ inoculum at 10^8 CFU/ml; • i. Diluting inoculum 1:100 in the broth at […] in 9.9 ml (1:100) is 10^6 colony forming units (CFU) forming the adjusted inoculum; • j. Adding 50 μL of the adjusted inoculum to the wells of the microtiter plate; • k. Incubating the plates at 35-37° C. for 18-22 hours; and • l. Reading, with the unaided eye, the MIC.
# The in vitro activities of tigecycline and control antibiotics were determined by the broth microdilution method as recommended by the NCCLS. (National Committee for Clinical Laboratory Standards, 2003. Methods for Dilution Antimicrobial Susceptibility Tests for Bacteria That Grow Aerobically; Approved Standards: M7-A6, Sixth ed, vol. 23., National Committee for Clinical Laboratory Standards Wayne, Pa.) was used for the standard procedures. MBH with 5% lysed horse blood was used for testing S. pneumoniae and Haemophilus Test Medium was used for testing H. influenzae. Oxyrase® (Oxyrase Inc, Mansfield, Ohio) was used according to the manufacturer's instructions by adding 1 ml of Oxyrase® to 50 ml of media. Media age studies were performed by preparing MHB in multiple flasks, then storing the media under various conditions. MICs were usually performed in duplicate on each day of testing. Storage under anaerobic conditions was conducted in an anaerobic chamber (MACS MG 1000, Don Whitley Scientific LTD). The pH of the media was determined by pH meter (Corning 430). A comparison of the in vitro activity of tigecycline by agar and broth dilution methodolgies with and without Oxyrase® against clinical isolates is shown in Table 1.
# [1] = HPLC analysis of early peak formation of tigecycline in water and MHB; type: physicochemical; conditions: stored overnight at RT
# Description: To test the hypothesis, solutions of tigecycline were prepared in water, fresh MHB and aged MHB. The solutions were stored overnight at RT, then subjected to HPLC analysis to look for degradation of tigecycline. […] This confirmed that the formation of early peak of tigecycline was accelerated in the aged media.
# In experiment 1 three experimental test samples were examined for early peak formation of tigecycline. In experiment 2 six experimental test samples were evaluated to determine the early peak of tigecycline which occurs in 24 hours. Results are as listed below:
# Tigecycline at a concentration of 1 mg/mL in each of the above vehicles was prepared, assayed at time zero and 1 day @ RT.
# The HPLC parameters are listed below: • HPLC column: Luna C18(2), 5 μm, 4.6×150 mm • Detection: UV @ 250 nm • Flow Rate: 1.5 mL/min • Injection volume=30 μL • Mobile Phase A: 6.8 g KH2PO4 in 950 mL water, pH to 6.2 with KOH, mixed with 50 mL acetonitrile • Mobile Phase B: 6.8 g KH2PO4 in 500 mL water, pH to 6.2 with KOH, mixed with 500 mL acetonitrile
# [2] = Table 8, S. aureus ATCC 29213, Mueller Hinton Broth + Oxyrase, n = 240
# [3] = Table 8, S. aureus ATCC 29213, Mueller Hinton Broth, n = 320
# [4] = Table 9, S. aureus ATCC 29213, Mueller Hinton Broth + Oxyrase, n = 29
# [5] = Table 9, S. aureus ATCC 29213, Mueller Hinton Broth, n = 131
smiles,measurement,setting,value
"CN(C)c1cc(NC(=O)CNC(C)(C)C)c(O)c2c1C[C@H]1C[C@H]3[C@H](N(C)C)C(O)=C(C(N)=O)C(=O)[C@@]3(O)C(O)=C1C2=O [Tigecycline, tigecycline]",MIC,"S. aureus ATCC 29213; ATCC29213, 0 h, S. aureus ATCC 29213, Day 0, Pre-prepared media, room temperature, N = 6",0.25 µg/mL
same,MIC,"S. aureus ATCC 29213; ATCC29213, 0 h, S. aureus ATCC 29213, Day 0, media Fresh from Powder 2° C., N = 6",0.12 µg/mL
same,MIC,"S. aureus ATCC 29213; ATCC29213, 0 h, S. aureus ATCC 29213, Day 0, media Fresh from Powder, room temperature, N = 6",0.06 to 0.12 µg/mL
same,MIC,"S. aureus ATCC 29213; ATCC29213, 24 h, S. aureus ATCC 29213, Day 1, Pre-prepared media, room temperature, N = 6",0.25 µg/mL
same,MIC,"S. aureus ATCC 29213; ATCC29213, 24 h, S. aureus ATCC 29213, Day 1, media Fresh from Powder 2° C., N = 6",0.12 µg/mL
same,MIC,"S. aureus ATCC 29213; ATCC29213, 24 h, S. aureus ATCC 29213, Day 1, media Fresh from Powder, room temperature, N = 6",0.12 µg/mL
same,MIC,"S. aureus ATCC 29213; ATCC29213, 168 h, S. aureus ATCC 29213, Day 7, Pre-prepared media, room temperature, N = 6",0.25 µg/mL
same,MIC,"S. aureus ATCC 29213; ATCC29213, 168 h, S. aureus ATCC 29213, Day 7, media Fresh from Powder 2° C., N = 6",0.12 µg/mL
same,MIC,"S. aureus ATCC 29213; ATCC29213, 168 h, S. aureus ATCC 29213, Day 7, media Fresh from Powder, room temperature, N = 6",0.25 µg/mL
same,MIC,"S. aureus ATCC 29213; ATCC29213, 336 h, S. aureus ATCC 29213, Day 14, Pre-prepared media, room temperature, N = 6",0.25 to 0.5 µg/mL
same,MIC,"S. aureus ATCC 29213; ATCC29213, 336 h, S. aureus ATCC 29213, Day 14, media Fresh from Powder 2° C., N = 6",0.25 to 0.5 µg/mL
same,MIC,"S. aureus ATCC 29213; ATCC29213, 336 h, S. aureus ATCC 29213, Day 14, media Fresh from Powder, room temperature, N = 6",0.25 to 0.5 µg/mL
same,MIC,"S. aureus ATCC 29213; ATCC29213, 336 h, read-out: Minimal Inhibitory Concentration, S. aureus ATCC 29213, media Aged Aerobic (2 weeks at RT under room air), N = 4",0.25 to 0.5 µg/mL
same,MIC,"S. aureus ATCC 29213; ATCC29213, 504 h, S. aureus ATCC 29213, Day 21, Pre-prepared media, room temperature, N = 6",0.5 µg/mL
same,MIC,"S. aureus ATCC 29213; ATCC29213, 504 h, S. aureus ATCC 29213, Day 21, media Fresh from Powder 2° C., N = 6",0.25 to 0.5 µg/mL
same,MIC,"S. aureus ATCC 29213; ATCC29213, 504 h, S. aureus ATCC 29213, Day 21, media Fresh from Powder, room temperature, N = 6",0.25 µg/mL
same,MIC,"S. aureus ATCC 29213; ATCC29213, 672 h, S. aureus ATCC 29213, Day 28, Pre-prepared media, room temperature, N = 6",0.25 to 0.5 µg/mL
same,MIC,"S. aureus ATCC 29213; ATCC29213, 672 h, S. aureus ATCC 29213, Day 28, media Fresh from Powder 2° C., N = 6",0.25 µg/mL
same,MIC,"S. aureus ATCC 29213; ATCC29213, 672 h, S. aureus ATCC 29213, Day 28, media Fresh from Powder, room temperature, N = 6",0.25 µg/mL
same,MIC,"S. aureus ATCC 29213; ATCC29213, read-out: Minimal Inhibitory Concentration (modal value), S. aureus ATCC 29213, Aged Media + Oxyrase, N = 8",0.25 µg/mL
same,MIC,"S. aureus ATCC 29213; ATCC29213, read-out: Minimal Inhibitory Concentration (modal value), S. aureus ATCC 29213, Aged media, N = 8",0.5 µg/mL
same,MIC,"S. aureus ATCC 29213; ATCC29213, read-out: Minimal Inhibitory Concentration (modal value), S. aureus ATCC 29213, Fresh Media + Oxyrase, N = 8",0.12 µg/mL
same,MIC,"S. aureus ATCC 29213; ATCC29213, read-out: Minimal Inhibitory Concentration (modal value), S. aureus ATCC 29213, Freshly Prepared Media, N = 8",0.25 µg/mL
same,MIC,"S. aureus ATCC 29213; ATCC29213, read-out: Minimal Inhibitory Concentration, S. aureus ATCC 29213, Aged Media + Oxyrase, N = 8",0.12 to 0.25 µg/mL
same,MIC,"S. aureus ATCC 29213; ATCC29213, read-out: Minimal Inhibitory Concentration, S. aureus ATCC 29213, Aged media, N = 8",0.5 µg/mL
same,MIC,"S. aureus ATCC 29213; ATCC29213, read-out: Minimal Inhibitory Concentration, S. aureus ATCC 29213, Commercially Prepared media, N = 4",0.25 µg/mL
same,MIC,"S. aureus ATCC 29213; ATCC29213, read-out: Minimal Inhibitory Concentration, S. aureus ATCC 29213, Fresh Media + Oxyrase, N = 8",0.12 to 0.25 µg/mL
same,MIC,"S. aureus ATCC 29213; ATCC29213, read-out: Minimal Inhibitory Concentration, S. aureus ATCC 29213, Freshly Prepared Media, N = 8",0.25 µg/mL
same,MIC,"S. aureus ATCC 29213; ATCC29213, read-out: Minimal Inhibitory Concentration, S. aureus ATCC 29213, Freshly Prepared media, N = 4",0.06 to 0.12 µg/mL
same,MIC,"S. aureus ATCC 29213; ATCC29213, read-out: Minimal Inhibitory Concentration, S. aureus ATCC 29213, MHB II + 0.05% Catalase",0.5 µg/mL
same,MIC,"S. aureus ATCC 29213; ATCC29213, read-out: Minimal Inhibitory Concentration, S. aureus ATCC 29213, MHB II + 0.05% L-ascorbic Acid",2 µg/mL
same,MIC,"S. aureus ATCC 29213; ATCC29213, read-out: Minimal Inhibitory Concentration, S. aureus ATCC 29213, MHB II + 0.05% L-cysteine",0.25 µg/mL
same,MIC,"S. aureus ATCC 29213; ATCC29213, read-out: Minimal Inhibitory Concentration, S. aureus ATCC 29213, MHB II + 0.05% Thioglycolate",0.25 µg/mL
same,MIC,"S. aureus ATCC 29213; ATCC29213, read-out: Minimal Inhibitory Concentration, S. aureus ATCC 29213, MHB II + 2% Oxyrase",0.12 µg/mL
same,MIC,"S. aureus ATCC 29213; ATCC29213, read-out: Minimal Inhibitory Concentration, S. aureus ATCC 29213, Mueller Hinton Broth II (Fresh)",0.25 µg/mL
same,MIC,"S. aureus ATCC 29213; ATCC29213, read-out: Minimal Inhibitory Concentration, S. aureus ATCC 29213, Mueller Hinton Broth II (MHB II)",0.25 to 0.5 µg/mL
same,MIC,"S. aureus ATCC 29213; ATCC29213, read-out: Minimal Inhibitory Concentration, S. aureus ATCC 29213, media Aged Anaerobic, N = 4",0.06 to 0.12 µg/mL
same,Number of Occurrences of MIC 0.06 ug/ml,S. aureus ATCC 29213; [2],14
same,Number of Occurrences of MIC 0.12 ug/ml,S. aureus ATCC 29213; [2],203
same,Number of Occurrences of MIC 0.25 ug/ml,S. aureus ATCC 29213; [2],22
same,Number of Occurrences of MIC 0.5 ug/ml,S. aureus ATCC 29213; [2],1
same,Number of Occurrences of MIC 0.12 ug/ml,S. aureus ATCC 29213; [3],1
same,Number of Occurrences of MIC 0.25 ug/ml,S. aureus ATCC 29213; [3],219
same,Number of Occurrences of MIC 0.5 ug/ml,S. aureus ATCC 29213; [3],29
same,Number of Occurrences of MIC 1 ug/ml,S. aureus ATCC 29213; [3],62
same,Number of Occurrences of MIC 2 ug/ml,S. aureus ATCC 29213; [3],9
same,Number of Occurrences of MIC 0.06 ug/ml,S. aureus ATCC 29213; [4],2
same,Number of Occurrences of MIC 0.12 ug/ml,S. aureus ATCC 29213; [4],15
same,Number of Occurrences of MIC 0.25 ug/ml,S. aureus ATCC 29213; [4],12
same,Number of Occurrences of MIC 0.06 ug/ml,S. aureus ATCC 29213; [5],1
same,Number of Occurrences of MIC 0.12 ug/ml,S. aureus ATCC 29213; [5],27
same,Number of Occurrences of MIC 0.25 ug/ml,S. aureus ATCC 29213; [5],78
same,Number of Occurrences of MIC 0.5 ug/ml,S. aureus ATCC 29213; [5],25
same,Amount of the early peak (HPLC) relative to the amount in water (ratio),[1]; tigecycline solution in aged MHB,about 35
same,Amount of the early peak (HPLC) relative to the amount in water,[1]; tigecycline solution in fresh MHB,about 12 times
